The values that follow are results of earlier work, collected in publication PMC11320581 (ACS Infectious Diseases, 2024).

SMILES strings stand for the structures.

In this series the test system is M. tuberculosis gyrase with single-resistance mutations at GyrA Ala90 and Asp94. The note with it: cited from earlier work.

Take `C[C@@H]1CN2c3c(cc4c(N5C(=O)OC[C@@H]5C)noc4c3F)CC3(C(=O)NC(=O)NC3=O)[C@H]2[C@H](C)O1` [zoliflodacin, Zoliflodacin]: the “maximal double-stranded DNA scission with fluoroquinolone-resistant gyrases, fold higher than wild-type” value was 2- to 5 fold.
